This note sets out measurements from patent publication US20160130278A1 (TAISHO PHARMACEUTICAL CO., LTD, priority 2013, published 2016).

This test concerns the target T1, human type 1 glycine transporter (GlyT1) (Homo sapiens, UniProt P48067).
T1 construct: T98G cells (glioma cells) expressing human type 1 glycine transporter (GlyT1) were used
T1 sequence (P48067 1-706): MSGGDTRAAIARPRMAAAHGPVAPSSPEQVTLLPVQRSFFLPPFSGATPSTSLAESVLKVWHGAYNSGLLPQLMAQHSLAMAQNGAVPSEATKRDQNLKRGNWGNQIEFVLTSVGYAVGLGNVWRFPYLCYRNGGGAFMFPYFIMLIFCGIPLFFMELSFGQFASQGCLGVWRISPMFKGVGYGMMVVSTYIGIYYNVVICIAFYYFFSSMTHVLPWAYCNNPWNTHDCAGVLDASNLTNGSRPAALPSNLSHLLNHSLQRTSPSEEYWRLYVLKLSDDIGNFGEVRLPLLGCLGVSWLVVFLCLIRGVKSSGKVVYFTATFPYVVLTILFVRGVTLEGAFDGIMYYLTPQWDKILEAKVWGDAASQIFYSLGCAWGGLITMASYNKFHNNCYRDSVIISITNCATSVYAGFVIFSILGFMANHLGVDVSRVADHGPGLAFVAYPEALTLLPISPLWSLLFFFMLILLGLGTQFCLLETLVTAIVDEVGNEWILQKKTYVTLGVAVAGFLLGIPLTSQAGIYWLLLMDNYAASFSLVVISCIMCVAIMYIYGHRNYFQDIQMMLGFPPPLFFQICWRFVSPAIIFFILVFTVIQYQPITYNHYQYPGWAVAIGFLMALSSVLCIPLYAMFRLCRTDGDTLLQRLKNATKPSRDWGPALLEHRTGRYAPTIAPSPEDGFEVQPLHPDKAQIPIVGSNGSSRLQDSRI
In words: Glycine uptake inhibition experiment ([3H]glycine uptake). Format: cell-based. Particulars: GlyT1. How it is done:
Glycine Uptake Inhibition Experiment
A glycine uptake experiment was conducted in accordance with the method published in Neuron, 8, 927-935, 1992. In the experiment, T98G cells (glioma cells) expressing human type 1 glycine transporter (GlyT1) were used. The T98G cells were seeded in a 96-well plate at 2.0×10^4 cells/well and cultured overnight in a CO2 incubator. The test substance was dissolved in a 100% DMSO solution and then dissolved in a 10 mM HEPES buffer solution (pH 7.4) containing 150 mM sodium chloride, 1 mM calcium chloride, 5 mM potassium chloride, 1 mM magnesium chloride, 10 mM glucose and 0.2% bovine serum albumin. After removing the cell culture medium, the test substance was subjected to a 10-min pretreatment. Subsequently, the test substance and [^3H] glycine (final concentration: 250 nM) were added to the cells and reaction was performed at room temperature for 15 minutes. After the end of the reaction, the extracellular fluid was aspirated with a manifold to remove excess labeled glycine present outside the cells, and then the cells were lysed with a 0.5 M aqueous sodium hydroxide solution. The glycine content in the cells was determined by measuring the radioactivity in the cell lysate with a liquid scintillation counter. Glycine uptake in the presence of 10 μM ALX5407 was defined as non-specific uptake, and the value calculated by subtracting the amount of the non-specific uptake from the total uptake in the absence of 10 μM ALX5407 was defined as specific uptake. In addition, glycine uptake inhibitory activity (IC50 value) was calculated from an inhibition curve at the concentrations of each test substance ranging from 10^−9 to 10^−5 M. It should be noted that ALX5407 is an HCl salt of N-[(3R)-3-([1,1′-biphenyl]-4-yloxy)-3-(4-fluorophenyl)propyl]-N-methylglycine.

Take `O=C(NC(c1cccc(F)c1)C1(O)CCC(F)(F)CC1)c1nccc(C(F)(F)F)c1Cl` (single isomer, unassigned) [Compound 76, 3-chloro-N-[(4,4-difluoro-1-hydroxycyclohexyl)(3-fluorophenyl)methyl]-4-(trifluoromethyl)pyridine-2-carboxamide]: the IC50 (as a rule, the concentration needed to halve the response being measured) is 0.25 µM.

Take `O=C(NC(c1cccc(F)c1)C1(O)CCC(F)(F)CC1)c1nccc(C(F)(F)F)c1Cl` (single isomer, unassigned) [Compound 77, 3-chloro-N-[(4,4-difluoro-1-hydroxycyclohexyl)(3-fluorophenyl)methyl]-4-(trifluoromethyl)pyridine-2-carboxamide]: the IC50 stood at 1.2 µM.

In turn, `O=C(NC(c1cccc(-n2cccn2)c1)C1(O)CCCC1)c1nccc(C(F)(F)F)c1Cl` (single isomer, unassigned) [Compound 82, 3-chloro-N-{(1-hydroxycyclopentyl)[3-(1H-pyrazol-1-yl)phenyl]methyl}-4-(trifluoromethyl)pyridine-2-carboxamide] yielded an IC50 of 0.089 µM.

For `O=C(NC(c1cccc(-n2cccn2)c1)C1(O)CCCC1)c1nccc(C(F)(F)F)c1Cl` (single isomer, unassigned) [Compound 83, 3-chloro-N-{(1-hydroxycyclopentyl)[3-(1H-pyrazol-1-yl)phenyl]methyl}-4-(trifluoromethyl)pyridine-2-carboxamide], the IC50 was found to be 3.9 µM.

On to `O=C(NC(c1cccc(Br)c1)C1(O)CCC(F)(F)CC1)c1nccc(C(F)(F)F)c1Cl` (single isomer, unassigned) [Compound 89, N-[(3-bromophenyl)(4,4-difluoro-1-hydroxycyclohexyl)methyl]-3-chloro-4-(trifluoromethyl)pyridine-2-carboxamide], for which the IC50 worked out at 1.1 µM.

Consider `O=C(NC(c1cccc(Br)c1)C1(O)CCC(F)(F)CC1)c1nccc(C(F)(F)F)c1Cl` (single isomer, unassigned) [Compound 90, N-[(3-bromophenyl)(4,4-difluoro-1-hydroxycyclohexyl)methyl]-3-chloro-4-(trifluoromethyl)pyridine-2-carboxamide], for which the IC50 is 0.3 µM.

For `CCn1cc(-c2cccc(C(NC(=O)c3nccc(C(F)(F)F)c3Cl)C3(O)CCC(F)(F)CC3)c2)cn1` (single isomer, unassigned) [Compound 91, 3-chloro-N-{(4,4-difluoro-1-hydroxycyclohexyl)[3-(1-ethyl-1H-pyrazol-4-yl)phenyl]methyl}-4-(trifluoromethyl)pyridine-2-carboxamide], it took 3.8 µM to reach half-maximal inhibition (IC50).

As to `CCn1cc(-c2cccc(C(NC(=O)c3nccc(C(F)(F)F)c3Cl)C3(O)CCC(F)(F)CC3)c2)cn1` (single isomer, unassigned) [Compound 92, 3-chloro-N-{(4,4-difluoro-1-hydroxycyclohexyl)[3-(1-ethyl-1H-pyrazol-4-yl)phenyl]methyl}-4-(trifluoromethyl)pyridine-2-carboxamide], the IC50 worked out at 0.027 µM.

The molecule `O=C(NC(c1cc(F)cc(Cl)c1)C1(O)CCCC1)c1nccc(C(F)(F)F)c1Cl` (single isomer, unassigned) [Compound 94, 3-chloro-N-[(3-chloro-5-fluorophenyl)(1-hydroxycyclopentyl)methyl]-4-(trifluoromethyl)pyridine-2-carboxamide] displayed an IC50 of 0.11 µM.

The molecule `O=C(NC(c1ccc(F)c(Cl)c1)C1(O)CCCC1)c1nccc(C(F)(F)F)c1Cl` (single isomer, unassigned) [Compound 97, 3-chloro-N-[(3-chloro-4-fluorophenyl)(1-hydroxycyclopentyl)methyl]-4-(trifluoromethyl)pyridine-2-carboxamide] gave an IC50 of 0.27 µM.

`O=C(NC(c1ccc(F)cc1Cl)C1(O)CCCC1)c1nccc(C(F)(F)F)c1Cl` (single isomer, unassigned) [Compound 99, 3-chloro-N-[(2-chloro-4-fluorophenyl)(1-hydroxycyclopentyl)methyl]-4-(trifluoromethyl)pyridine-2-carboxamide] yielded an IC50 of 5.2 µM.

For the molecule `O=C(NC(c1ccc(F)cc1Cl)C1(O)CCCC1)c1nccc(C(F)(F)F)c1Cl` (single isomer, unassigned) [Compound 100, 3-chloro-N-[(2-chloro-4-fluorophenyl)(1-hydroxycyclopentyl)methyl]-4-(trifluoromethyl)pyridine-2-carboxamide], half-maximal inhibition (IC50) required 0.059 µM.

`O=C(NC(c1cc(Cl)ccc1Cl)C1(O)CCCC1)c1nccc(C(F)(F)F)c1Cl` (single isomer, unassigned) [Compound 113, 3-chloro-N-[(2,5-dichlorophenyl)(1-hydroxycyclopentyl)methyl]-4-(trifluoromethyl)pyridine-2-carboxamide]: half-maximal inhibition (IC50) was put at 1.7 µM.

Take `O=C(NC(c1cc(Cl)ccc1Cl)C1(O)CCCC1)c1nccc(C(F)(F)F)c1Cl` (single isomer, unassigned) [Compound 114, 3-chloro-N-[(2,5-dichlorophenyl)(1-hydroxycyclopentyl)methyl]-4-(trifluoromethyl)pyridine-2-carboxamide]: 0.065 µM corresponded to half-maximal inhibition (IC50).

In turn, `O=C(NC(c1cc(Cl)cc(Cl)c1)C1(O)CCCC1)c1nccc(C(F)(F)F)c1Cl` (single isomer, unassigned) [Compound 115, 3-chloro-N-[(3,5-dichlorophenyl)(1-hydroxycyclopentyl)methyl]-4-(trifluoromethyl)pyridine-2-carboxamide] had an IC50 of 0.059 µM.

For the molecule `O=C(NC(c1cccc(Cl)c1Cl)C1(O)CCCC1)c1nccc(C(F)(F)F)c1Cl` (single isomer, unassigned) [Compound 116, 3-chloro-N-[(2,3-dichlorophenyl)(1-hydroxycyclopentyl)methyl]-4-(trifluoromethyl)pyridine-2-carboxamide], half-maximal inhibition (IC50) was put at 6 µM.

Molecule `O=C(NC(c1cccc(Cl)c1Cl)C1(O)CCCC1)c1nccc(C(F)(F)F)c1Cl` (single isomer, unassigned) [Compound 117, 3-chloro-N-[(2,3-dichlorophenyl)(1-hydroxycyclopentyl)methyl]-4-(trifluoromethyl)pyridine-2-carboxamide] registered an IC50 of 0.029 µM.

In the case of `CCn1cc(-c2cccc(C(NC(=O)c3cccc(C(F)(F)F)c3Cl)C3(O)CCC(F)(F)CC3)c2)cn1` (single isomer, unassigned) [Compound 121, 2-chloro-N-{(4,4-difluoro-1-hydroxycyclohexyl)[3-(1-ethyl-1H-pyrazol-4-yl)phenyl]methyl}-3-(trifluoromethyl)benzamide], 7.4 µM corresponded to half-maximal inhibition (IC50).

`CCn1cc(-c2cccc(C(NC(=O)c3cccc(C(F)(F)F)c3Cl)C3(O)CCC(F)(F)CC3)c2)cn1` (single isomer, unassigned) [Compound 122, 2-chloro-N-{(4,4-difluoro-1-hydroxycyclohexyl)[3-(1-ethyl-1H-pyrazol-4-yl)phenyl]methyl}-3-(trifluoromethyl)benzamide] displayed an IC50 of 0.22 µM.

As for `CC(C)n1cc(-c2cccc(C(NC(=O)c3nccc(C(F)(F)F)c3Cl)C3(O)CCC(F)(F)CC3)c2)cn1` (single isomer, unassigned) [Compound 133, 3-chloro-N-[(4,4-difluoro-1-hydroxycyclohexyl){3-[1-(propan-2-yl)-1H-pyrazol-4-yl]phenyl}methyl]-4-(trifluoromethyl)pyridine-2-carboxamide], the IC50 came out at 3.5 µM.

`CC(C)n1cc(-c2cccc(C(NC(=O)c3nccc(C(F)(F)F)c3Cl)C3(O)CCC(F)(F)CC3)c2)cn1` (single isomer, unassigned) [Compound 134, 3-chloro-N-[(4,4-difluoro-1-hydroxycyclohexyl){3-[1-(propan-2-yl)-1H-pyrazol-4-yl]phenyl}methyl]-4-(trifluoromethyl)pyridine-2-carboxamide]: half-maximal inhibition (IC50) required 0.031 µM.
